# Test results published in ChEMBL document CHEMBL1137022, “The Ssk1p response regulator and Chk1p histidine kinase mutants of Candida albicans are hypersensitive to fluconazole and voriconazole” (Antimicrob Agents Chemother, 2007).
# Activity calls are given as the source filed them. The rule behind the calls is not given here.
# Assays:
# Candida albicans [1] = assay: Fungistatic activity against Candida albicans CHK21 after 24 to 48 hrs by broth microdilution assay; format: functional
# Candida albicans [2] = assay: Fungistatic activity against Candida albicans SSK21 after 24 to 48 hrs by broth microdilution assay; format: functional
# Candida albicans [3] = assay: Ratio of MIC for Candida albicans CHK21 to MIC for Candida albicans SSK21; format: functional
# Candida albicans [4] = assay: Fungicidal activity against Candida albicans SSK21 assessed as reduction in cell viability at 4 times MIC after 24 hrs; format: functional, organism-based
# Candida albicans [5] = assay: Fungicidal activity against wild type Candida albicans CAF2-1 assessed as reduction in cell viability at MIC of SSK21/CHK21 after 24 hrs; format: functional, organism-based
# Candida albicans [6] = assay: Fungistatic activity against Candida albicans SSK23 after 24 to 48 hrs by broth microdilution assay; format: functional
# Candida albicans [7] = assay: Fungistatic activity against Candida albicans CHK23 after 24 to 48 hrs by broth microdilution assay; format: functional
# Candida albicans [8] = assay: Fungicidal activity against Candida albicans CHK23 assessed as reduction in cell viability at MIC of SSK21/CHK21 after 24 hrs; format: functional, organism-based
# Candida albicans [9] = assay: Fungicidal activity against Candida albicans CHK21 assessed as reduction in cell viability at MIC after 24 hrs; format: functional, organism-based
# Candida albicans [10] = assay: Fungicidal activity against Candida albicans SSK23 assessed as reduction in cell viability at MIC of SSK21/CHK21 after 24 hrs; format: functional, organism-based
# Candida albicans [11] = assay: Fungicidal activity against Candida albicans CHK21 assessed as reduction in cell viability at 4 times MIC after 24 hrs; format: functional, organism-based
# Candida albicans [12] = assay: Fungicidal activity against Candida albicans SSK21 assessed as reduction in cell viability at MIC after 24 hrs; format: functional, organism-based
# Candida albicans [13] = assay: Fungicidal activity against Candida albicans CHK23 assessed as reduction in cell viability at 4 times MIC of SSK21/CHK21 after 24 hrs; format: functional, organism-based
# Candida albicans [14] = assay: Fungistatic activity against wild type Candida albicans CAF2-1 after 24 to 48 hrs by broth microdilution assay; format: functional
# Candida albicans [15] = assay: Fungicidal activity against Candida albicans SSK23 assessed as reduction in cell viability at 4 times MIC of SSK21/CHK21 after 24 hrs; format: functional, organism-based
# Candida albicans [16] = assay: Fungicidal activity against wild type Candida albicans CAF2-1 assessed as reduction in cell viability at 4 times MIC of SSK21/CHK21 after 24 hrs; format: functional, organism-based
# Candida albicans [17] = assay: Fungistatic activity against Candida albicans SLN1 HK mutant after 24 to 48 hrs by broth microdilution assay; format: functional, organism-based
# Candida albicans [18] = assay: Fungistatic activity against Candida albicans SKN7 mutant after 24 to 48 hrs by broth microdilution assay; format: functional, organism-based
# Candida albicans [19] = assay: Drug uptake in Candida albicans SSK21 at 3.6 ng/ml after 1 hrs by liquid scintillation counting relative to wild type Candida albicans CAF2-1; format: ADME, organism-based
structure (smiles),measurement,setting,value
CC(=O)N1CCN(c2ccc(OCC3COC(Cn4ccnc4)(c4ccc(Cl)cc4Cl)O3)cc2)CC1 (configuration not stated),Activity,Candida albicans [1],Active
same,Activity,Candida albicans [2],Active
CC[C@H](C)C[C@H](C)CCCCCCCCC(=O)N[C@H]1C[C@@H](O)[C@@H](NCCN)NC(=O)[C@@H]2[C@@H](O)CCN2C(=O)[C@H]([C@H](O)CCN)NC(=O)[C@H]([C@H](O)[C@@H](O)c2ccc(O)cc2)NC(=O)[C@@H]2C[C@@H](O)CN2C(=O)[C@H]([C@@H](C)O)NC1=O,Activity,Candida albicans [1],Active
same,Activity,Candida albicans [2],Active
C[C@@H]1[C@H](O)[C@@H](C)/C=C/C=C/C=C/C=C/C=C/C=C/C=C/[C@H](O[C@@H]2O[C@H](C)[C@@H](O)[C@H](N)[C@@H]2O)C[C@@H]2O[C@](O)(C[C@@H](O)C[C@@H](O)[C@H](O)CC[C@@H](O)C[C@@H](O)CC(=O)O[C@H]1C)C[C@H](O)[C@H]2C(=O)O,Activity,Candida albicans [1],Active
same,Activity,Candida albicans [2],Active
Clc1ccc(COC(Cn2ccnc2)c2ccc(Cl)cc2Cl)c(Cl)c1 (configuration not stated),Activity,Candida albicans [1],Active
same,Activity,Candida albicans [2],Active
OC(Cn1cncn1)(Cn1cncn1)c1ccc(F)cc1F [FLUCONAZOLE],Ratio,Candida albicans [3],30
same,Activity,Candida albicans [4],Active
same,Activity,Candida albicans [5],inactive
same,MIC,Candida albicans [6],0.25 µg/mL
same,MIC,Candida albicans [7],16 µg/mL
same,Activity,Candida albicans [8],inactive
same,Activity,Candida albicans [9],inactive
same,Activity,Candida albicans [10],inactive
same,Activity,Candida albicans [11],Active
same,Activity,Candida albicans [12],inactive
same,Activity,Candida albicans [13],Active
same,MIC,Candida albicans [1],1 µg/mL
same,MIC,Candida albicans [14],16 µg/mL
same,Activity,Candida albicans [15],Active
same,Activity,Candida albicans [16],Active
same,MIC,Candida albicans [2],0.032 µg/mL
C[C@@H](c1ncncc1F)[C@](O)(Cn1cncn1)c1ccc(F)cc1F [VORICONAZOLE],Activity,Candida albicans [4],Active
same,Activity,Candida albicans [5],inactive
same,MIC,Candida albicans [6],0.064 µg/mL
same,MIC,Candida albicans [7],1 µg/mL
same,Activity,Candida albicans [8],inactive
same,Activity,Candida albicans [9],inactive
same,Activity,Candida albicans [10],inactive
same,Activity,Candida albicans [11],Active
same,Activity,Candida albicans [12],inactive
same,Activity,Candida albicans [13],Active
same,MIC,Candida albicans [1],0.015 µg/mL
same,MIC,Candida albicans [14],0.5 µg/mL
same,Activity,Candida albicans [17],Active
same,Activity,Candida albicans [15],Active
same,Activity,Candida albicans [16],Active
same,MIC,Candida albicans [2],0.008 µg/mL
same,Activity,Candida albicans [18],Active
[3H]OC(Cn1cncn1)(Cn1cncn1)c1ccc(F)cc1F [[3H]FLUCONAZOLE],fold change (FC),Candida albicans [19],2
